Results on 17 compounds are retold here after US9856264B2, “Isoquinolinesulfonyl derivative as RHO kinase inhibitor” (MEDSHINE DISCOVERY INC., priority 2014, dated 2018).

This test deals with ROCK kinase. Briefly: In vitro ROCK kinase inhibition activity evaluation (33P-ATP filter-binding). Format: biochemical. Particulars: 1 nM ROCK kinase, 20 μM Long S6 Kinase substrate peptide, 2 h room temperature. On the set-up: key to ROCK inhibition activity: 1 μM ≦ + < 5 μM; 0.1 μM ≦ ++ < 1 μM; +++ < 0.1 μM; −− N/A. The protocol: Biological Activity Experiment: In Vitro ROCK Kinase Inhibition Activity Evaluation
Experimental Objective: Test ROCK Inhibition IC50 Value of Invented Compounds
Buffer solution: 20 mM Hepes (pH 7.5), 10 mM MgCl2, 1 mM EGTA, 0.02% Brij35, 0.02 mg/ml BSA, 0.1 mM Na3VO4, 2 mM DTT, 1% DMSO
To a freshly prepared buffer solution was added ROCK substrate Long S6 Kinase substrate peptide, with concentration at 20 μM. 1 nM ROCK kinase was then added, and well stirred. A series of DMSO solution (starting from 10 μM, dilution factor 3) of testing article was added using Echo550. The mixture was incubated for 20 min at room temperature, then was added ^33P-ATP (radioactive intensity 10 μCi/μL) to initiate reaction and further reacted for 2 h at room temperature. The mixture was filtered through P81 ion exchange paper (Whatman #3698-915), and washed by 0.75% phosphoric acid. The intensity of radiation was measured by Filter-Binding method.
The inhibition activity of the testing articles were measured by comparing the residue kinase activity to blank substrate (pure DMSO). Using Prism software ((GraphPad Software, San Diego Calif., USA) to calculate IC50 and curve.

pIC50: −log10 of the molar value.

As a reminder, the pIC50 is −log10 of the IC50, conventionally taken in molar units. Take `Cc1cncc2cccc(S(=O)(=O)N3C[C@H]4CN[C@H]4C3)c12` (stereo in doubt) [Example 41, 5-(3,6-diazabicyclo[3.2.0]heptan-3-ylsulfonyl)-4-methylisoquinoline]: the negative-log IC50 (pIC50) is more than 7.00. Still for that read-out and setting: the result for `O=S(=O)(c1cccc2cncc(Cl)c12)N1CC2CCNCC2C1` (centres unmarked) [Example 23, 4-chloro-5-((hexahydro-1H-pyrrolo[3,4-c]pyridin-2(3H)-yl)sulfonyl)isoquinoline] reads 6.00 to 7.00; that for `O=S(=O)(c1cccc2cncc(F)c12)N1C[C@@H]2CCN[C@@H]2C1` [Example 25, 4-fluoro-5-((hexahydropyrrolo[3,4-b]pyrrol-5(1H)-yl)sulfonyl)isoquinoline], 6.00 to 7.00; that for `Cc1cncc2cccc(S(=O)(=O)N3CC4CCNCC4C3)c12` (centres unmarked) [Example 44, 5-((hexahydro-1H-pyrrolo[3,4-c]pyridin-2(3H)-yl)sulfonyl)-4-methylisoquinoline], more than 7.00. Turning to `O=S(=O)(c1cccc2cnccc12)N1CCC2CCNC2C1` (centres unmarked) [Example 9, 5-((hexahydro-1H-pyrrolo[2,3-c]pyridin-6(2H)-yl)sulfonyl) isoquinoline], the negative logarithm of the IC50 (pIC50) is 5.30 to 6.00. As for `O=S(=O)(c1cccc2cncc(C(F)F)c12)N1C[C@H]2CN[C@H]2C1` (stereo in doubt) [Example 34, 5-(3,6-diazabicyclo[3.2.0]heptan-3-ylsulfonyl)-4-(difluoromethyl)isoquinoline], the ROCK inhibition activity entry is reported as “−−”.

Turning to `O=S(=O)(c1cccc2cnccc12)N1C[C@@H]2CCN[C@@H]2C1` (stereo in doubt) [Example 2, 5-((hexahydropyrrolo[3,4-b]pyrrol-5(1H)-yl)sulfonyl)isoquinoline], the pIC50 was 6.00 to 7.00. `COc1cncc2cccc(S(=O)(=O)N3C[C@H]4CCCN[C@H]4C3)c12` (stereo in doubt) [Example 49, 5-((hexahydro-1H-pyrrolo[3,4-b]pyridin-6(2H)-yl)sulfonyl)-4-methoxyisoquinoline]: the negative-log IC50 (pIC50) was 5.30 to 6.00. For the compound `CCNC1CN(S(=O)(=O)c2cccc3cnccc23)CC12CC2` (centres unmarked) [Example 11, N-ethyl-5-(isoquinolin-5-ylsulfonyl)-5-azaspiro[2.4]heptan-7-amine], the ROCK inhibition activity result is given as “−−”. On the same count and under the same terms, next, `O=S(=O)(c1cccc2cncc(C(F)F)c12)N1C[C@@H]2CCN[C@@H]2C1` (stereo in doubt) [Example 32, 4-(difluoromethyl)-5-((hexahydropyrrolo[3,4-b]pyrrol-5(1H)-yl)sulfonyl)isoquinoline]: “−−”; `O=S(=O)(c1cccc2cncc(C(F)F)c12)N1CC2CCNCC2C1` (centres unmarked) [Example 36, 4-(difluoromethyl)-5-((hexahydro-1H-pyrrolo[3,4-c]pyridin-2(3H)-yl)sulfonyl)isoquinoline]: “−−”. Turning to `O=S(=O)(c1cccc2cncc(Cl)c12)N1CCC2NCCCC21` (centres unmarked) [Example 21, 4-chloro-5-((octahydro-1H-pyrrolo[3,2-b]pyridin-1-yl)sulfonyl)isoquinoline], the negative-log IC50 (pIC50) is 6.00 to 7.00. Turning to `O=S(=O)(c1cccc2cncc(F)c12)N1CC[C@@H]2NCC[C@@H]21` (stereo in doubt) [Example 24, 4-fluoro-5-((hexahydropyrrolo[3,2-b]pyrrol-1(2H)-yl)sulfonyl)isoquinoline], the negative-log IC50 (pIC50) is 5.30 to 6.00. Same read-out and setting: next, `COc1cncc2cccc(S(=O)(=O)N3CC[C@@H]4NCC[C@@H]43)c12` (stereo in doubt) [Example 47, 5-((hexahydropyrrolo[3,2-b]pyrrol-1(2H)-yl)sulfonyl)-4-methoxyisoquinoline]: 5.30 to 6.00. Same read-out and setting: next, `Cc1cnc(O)c2cccc(S(=O)(=O)N3C[C@@H]4CCN[C@@H]4C3)c12` (stereo in doubt) [Example 39, 5-((hexahydropyrrolo[3,4-b]pyrrol-5(1H)-yl)sulfonyl)-4-methylisoquinolin-1-ol]: 6.00 to 7.00; `O=S(=O)(c1cccc2cncc(Cl)c12)N1C[C@H]2CNC[C@H]2C1` [Example 22, 4-chloro-5-((hexahydropyrrolo[3,4-c]pyrrol-2(1H)-yl)sulfonyl)isoquinoline]: 6.00 to 7.00; `O=S(=O)(c1cccc2cnccc12)N1CCC2NCCCC2C1` (centres unmarked) [Example 5, 6-(isoquinolin-5-ylsulfonyl)decahydro-1,6-naphthyridine]: 6.00 to 7.00.
